Data as given in patent US8388960B2, “Elimination of heterogeneous or mixed cell population in tumors” (priority 2005, dated 2013).
pIC50: −log10 of the molar value.

Key:
[1] = Thiol-disulfide interchange of DM4 in RPMI 1640 medium; conditions: buffer
Protocol: To further test whether any of the metabolites in the media was a disulfide compound, a cell supernatant sample from a 26-hour exposure was divided into two equal portions of which one was subjected directly to chromatography, and the other portion was treated with DTT and selenol before chromatography to reduce all disulfide bonds (18).

[2] = single intravenous dose of 12.5 μg/kg; cited from earlier work
[3] = test system: antigen-positive COLO 205 cells; experiment: MTT-based cytotoxicity assay, COLO 205 cells (Example 2); assay type: cell-based, human; conditions: conjugates 4-day exposure
Protocol: (§1) The anti-tumor activity of the two conjugates was assessed in SCID mice bearing subcutaneous HT-29 or COLO 205 tumors (both CanAg-positive human colon adenocarcinoma).
(§2) The two major metabolites, S-methyl-DM4 and lysine-N^ε—SMCC-DM1, were synthesized and tested for their in vitro cytotoxicity against COLO 205 cells and Namalwa cells.

[4] = test system: antigen-negative Namalwa cells; experiment: MTT-based cytotoxicity assay, Namalwa cells (Example 2); assay type: cell-based, human; conditions: free maytansinoids
Protocol: as §1, §2

COLO 205 cells = experiment: Cell cycle studies (G2/M arrest, DNA content by FACS) in COLO 205 cells; assay type: cell-based, human
Protocol: Exponentially growing COLO 205 cells were resuspended at 1-2×10^5 cells/mL before drug or conjugate treatment. […] DNA content analysis was performed using FACSCalibur (Becton Dickinson, San Jose, Calif.). 10,000 events per sample were collected, and FL2-A histograms generated for each sample. The cell cycle analysis software, ModFit LT 3.1 (Verity Software House, Topsham, Me.) was used to determine the percentage of cells in different phases of the cell cycle.
Samples of asynchronously growing cells were exposed to conjugate (3 nM), or DM1-SMe (10 nM see FIG. 16 for structure), or nocodazole (0.66 μM) another inhibitor of microtubule polymerization, at 37° C. for 20 h and the DNA content of the cells was then analyzed by flow cytometry.
COLO 205 cells were first synchronized with a 24-hr treatment of aphidicolin, a reversible DNA replication inhibitor that blocks cells in S phase (Ikegami S. et al., Nature, 275, 458-460 ((1978)). Since the majority of the asynchronous population of COLO 205 cells were in G1 phase, most of the aphidicolin-treated cells arrested in the beginning of S phase, which cannot be distinguished from G1 phase in the FACS analysis (FIG. 11B, top picture). The synchronized cells were then released from the arrest by the removal of aphidicolin, and either left untreated, or treated with DM1-SMe or with either conjugate.

## COc1cc2cc(c1Cl)N(C)C(=O)CC(OC(=O)C(C)N(C)C(=O)CCC(C)(C)S)C1(C)OC1C(C)C1CC(O)(NC(=O)O1)C(OC)/C=C/C=C(\C)C2 (stereo not drawn) [DM4, N^2′-deacetyl-N-^2′(4-methyl-4-mercapto-1-oxopentyl)-maytansine]
[1]
  half-life: < 1 h

## COc1c(O)c2c(c3cc(C(=O)N4CCc5c4c(O)c(OC)c4[nH]c(C(=O)N6CC7CC78C6=CC(=O)c6[nH]cc(C)c68)cc54)[nH]c13)CCN2C(N)=O (stereo not drawn) [CC-1065]
[2]
  toxicity after administration to mice: delayed hepatotoxicity leading to mortality on day 50

## COc1cc2cc(c1Cl)N(C)C(=O)C[C@H](OC(=O)[C@H](C)N(C)C(=O)CCC(C)(C)SC)[C@]1(C)O[C@H]1[C@H](C)[C@@H]1C[C@@](O)(NC(=O)O1)[C@H](OC)/C=C/C=C(\C)C2 [S-methyl-DM4, N^2′-deacetyl-N^2′-(4-methylthio-4-methyl-1-oxopentyl)-maytansine]
[3]
  pIC50: 11.70
[4]
  pIC50: 11.70

## COc1cc2cc(c1Cl)N(C)C(=O)C[C@H](OC(=O)[C@H](C)N(C)C(C)=O)[C@]1(C)O[C@H]1[C@H](C)[C@@H]1C[C@@](O)(NC(=O)O1)[C@H](OC)/C=C/C=C(\C)C2 [maytansine, reference compound]
[3]; Homo sapiens, COLO 205, 96 h
  pIC50: 10.22 to 10.52
[4]; Homo sapiens
  pIC50: 10.22 to 10.52

## CO/C1=C\C(C)=C\[C@@H](C)[C@@H](O)[C@@H](C)C/C(C)=C/C=C/[C@H](OC)[C@@H]([C@@H](C)[C@@H](O)[C@H](C)[C@@]2(O)C[C@@H](O)[C@H](C)[C@@H](C(C)C)O2)OC1=O [BafA1, Bafilomycin A1, reference compound]
COLO 205 cells; BafA1 alone
  distribution of cells between the phases of the cell cycle: did not significantly alter the distribution of cells

## COc1cc2cc(c1Cl)N(C)C(=O)C[C@H](OC(=O)[C@H](C)N(C)C(=O)CCSSC)[C@]1(C)O[C@H]1[C@H](C)[C@@H]1C[C@@](O)(NC(=O)O1)[C@H](OC)/C=C/C=C(\C)C2 [DM1-SMe, N^2′-deacetyl-N^2′-[(3-methyldithio)-1-oxopropyl]-maytansine]
COLO 205 cells; 20 h, 30 μM chloroquine, 10^−8 M DM1-SMe, 3×10^−9 M huC242-SMCC-DM1
  cells in G2 in the presence of chloroquine: 51%
COLO 205 cells; synchronized cells, after 10 h and after 18 h
  cells in G2/M phase after release from aphidicolin: 75% to 85%
